Reference: patent US12329774B2, “Method and composition for enhancing the quality and benefits of sleep” (priority 2020, dated 2025)

How the values were obtained:
[1] = test system: caffeine-induced wakefulness mice; assay: Caffeine-induced wakefulness mouse model: sleep latency, sleep duration, number falling asleep; type: in vivo; conditions: caffeine-induced wake mouse; caffeine alone or + test article (20 mg theanine/kg)
Description: Animals and Experimental design: Seven male BALB/c mice per treatment arm (age: 8 weeks, weight: […]) were housed in a controlled environment with a 12:12-h light-dark cycle at 22° C. and were provided with mice chow and water ad libitum. All experiments were conducted under the National Institutes of Health's Guidelines for the Care and Use of Laboratory Animals and approved by the Ethics Committee of the Medipol University.
Drugs and materials: Study product was provided by Nutrition21 LLC (Mg-Theanate #1=lot AA209-122-20, Mg-Theanate #2=lot BLS-DN 13). […] The concentration of each drug solution was adjusted so that the volume injected was constant at 1.0 ml/kg BW. All drug solutions were prepared fresh daily, and were administered intraperitoneally (i.p.). […]

[2] = test system: brain serotonin, dopamine and melatonin; assay: Brain neurotransmitter levels by ELISA in caffeine-induced wakefulness mice; type: in vivo; conditions: for Dopamine / Melatonin / Serotonin: brain, caffeine followed by saline (C) or test article (20 mg theanine/kg), ELISA, means and standard deviations
MDA, SOD, CAT, GSHPx = assay: Brain antioxidant status in caffeine-induced wakefulness mice; type: in vivo; conditions: for CAT / GSHPx / SOD / MDA: caffeine followed by saline (C) or test article (20 mg theanine/kg), means and standard deviations
Description: Animals were anesthetized with urethane ([…], i.p., Sigma U2500). Body temperature was maintained between 36.5 and 37° C. with homeothermic blanket. Mice were stabilized under a stereotaxic frame (World Precision Instruments, Berlin; Germany) and an incision was made on the skin along the anterior/posterior line of the skull. The left […] was removed gently with a dental drill (Marothon-3; Korea). Two Ag-AgCl sphere electrodes were placed over the left hemisphere with the reference electrode attached on the pinna. […] Brains were rapidly removed, frozen on dry ice and stored at -80° C. until analyses could be performed. Biochemical and Oxidative Stress Markers-Serum melatonin, serotonin, and dopamine were measured using ELISA kits. Brain levels of malondialdehyde (MDA) were measured by HPLC. Brain activities of superoxide dismutase (SOD), catalase (CAT) and glutathione peroxidase (GSHPx) were measured using ELISA kits for each analyte.

wakefulness = conditions: 7.5 mg/kg i.p.; Kwon et al., 2006; cited from earlier work
[3] = test system: brain waves (spike amplitude / spike frequency); assay: Electrocorticography (ECoG) of brain electrical activity in caffeine-induced wakefulness mice; type: in vivo; conditions: caffeine-induced wake mouse; electrical activity over 120 minutes; result in words; listed as Theanine
Description: Animals were anesthetized with urethane ([…], i.p., Sigma U2500). Body temperature was maintained between 36.5 and 37° C. with homeothermic blanket. Mice were stabilized under a stereotaxic frame (World Precision Instruments, Berlin; Germany) and an incision was made on the skin along the anterior/posterior line of the skull. The left […] was removed gently with a dental drill (Marothon-3; Korea). Two Ag—AgCl sphere electrodes were placed over the left hemisphere with the reference electrode attached on the pinna.
Brains were rapidly removed, frozen on dry ice and stored at −80° C. until analyses could be performed.

[4] = test system: pentobarbital-induced sleep; assay: Pentobarbital-induced sleep test mouse model; type: in vivo, mice; conditions: for Duration of sleep / Sleep latency period: pentobarbital 42 mg/kg, test article 20 mg theanine/kg per os 45 min before, result in words
Description: Subsequently, pentobarbital was administered intraperitoneally to induce a hypnotic state that promoted sleep. The effects on sleep of the test agents were monitored.
Pentobarbital-induced sleep was performed according to published methods with slight modifications. Mice were fasted for 24 h prior to the experiment. Each test article was dissolved or suspended in physiological saline and then was administered per os. The groups were administered doses of 20 mg/kg theanine, Mg-theanate #1 (20 mg theanine/kg), and Mg-theanate #2 (20 mg theanine/kg), respectively. Forty-five minutes later, a hypnotic dose of pentobarbital (42 mg/kg) was injected into the left side of the abdomen. After injection, the mice were placed in individual cages and subjected to measurements of sleep latency and duration. Sleep latency was defined as the period between pentobarbital injection and the loss of righting reflex (sleep onset), and sleep duration denoted the time elapsed between loss of the righting reflex and recovery.
Statistical Analyses—Data are shown as mean±SEM. Sample size was calculated based on a power of 85% and a p-value of 0.05. Given that assumption, a sample size of seven per treatment was calculated. The data were analyzed using the GLM procedure of SAS (SAS Institute: SAS User's Guide: Statistics). The treatments were compared using ANOVA and Student's unpaired t-test; P<0.05 was considered statistically significant.

[5] = Nathan [17]; cited from earlier work
sleep cycle = conditions: Jang et al. [11], cited from earlier work
[6] = test system: stimulatory action of caffeine; conditions: rats, EEG, Kakuda et al. [13]; cited from earlier work
[7] = test system: Bax, Bcl-2, Caspase-3, eNOS, iNOS; assay: Western blot of brain cell survival indicators in caffeine-induced wakefulness mice; conditions: caffeine-induced wake mouse; result in words; listed as Theanine
[8] = Ates et al. [2]; comparison in words; cited from earlier work
[9] = 500 mg magnesium daily, 8 weeks, cited from earlier work
[10] = caffeine-induced wake mouse, result in words
[11] = caffeine-induced wake mouse model, 20 mg/kg

| Compound | Dopamine [2] | Melatonin [2] | Serotonin [2] | CAT (MDA, SOD, CAT, GSHPx) | GSHPx (MDA, SOD, CAT, GSHPx) | SOD (MDA, SOD, CAT, GSHPx) | MDA (MDA, SOD, CAT, GSHPx) | Absorption (and bioavailability) of magnesium [8] | further results |
| --- | --- | --- | --- | --- | --- | --- | --- | --- | --- |
| Cn1c(=O)c2c(ncn2C)n(C)c1=O [C, Caffeine, reference compound] | 584.86 + 72.47d ng/g | 0.59 + 0.05a pg/g | 571.00 + 42.14d ng/g | 24.40 + 1.62a IU/mg protein | 12.07 + 2.89b IU/mg protein | 89.00 + 5.16a IU/mg protein | – | – | Number of animals falling asleep (share of the group that fell asleep) [1]: Caffeine: only 50% of the group fell asleep; Sleep latency period [1]: Caffeine: The sleep latency period doubled to about 2 minutes in caffeine-treated animals.; Neurotransmitter levels (brain serotonin, dopamine, and melatonin) [2, 10]: Caffeine: Levels of all three neurotransmitters were significantly reduced, reflecting the; Level of MDA (indicator of oxidative stress) (MDA, SOD, CAT, GSHPx; [10]): Caffeine: The level of MDA (an indicator of oxidative stress) was significantly increased,; Time for which wakefulness is maintained (wakefulness): at least 2 h |
| CCNC(=O)CCC(N)C(=O)O [CMgT1, magnesium di-L-theanate] | 832.71 + 74.50bc ng/g | 0.80 + 0.03b pg/g | 762.29 + 25.34b ng/g | 36.47 + 1.27b IU/mg protein | – | 131.14 + 9.86b IU/mg protein | 2.24 + 0.14c nmol/g | – | – |
| CCNC(=O)CCC(N)C(=O)O [CMgT2, magnesium di-L-theanate] | 895.57 + 61.93ab ng/g | 0.85 + 0.04b pg/g | 751.43 + 30.34b ng/g | 35.96 + 2.52b IU/mg protein | 19.11 + 2.39ab IU/mg protein | 137.29 + 5.99b IU/mg protein | 2.24 + 0.09c nmol/g | – | – |
| CCNC(=O)CCC(N)C(=O)O (stereo not shown) [CT, 2-amino-4-(ethylcarbamoyl)-butyric acid, reference compound] | 779.00 + 77.73c ng/g | 0.69 + 0.08c pg/g | 655.43 + 35.46c ng/g | 29.51 + 2.06c IU/mg protein | 15.56 + 7.94ab IU/mg protein | 117.14 + 13.89c IU/mg protein | 2.46 + 0.17b nmol/g | – | Number of animals falling asleep (share of the group that fell asleep) [1]: + Theanine: 62.5% of the group fell asleep; Sleep latency period [1]: + Theanine: The sleep latency period increased from about 1 to about 1.5 minute, a minutes; Amplitude of brain waves [3]: + Theanine: Within about 30 minutes, the amplitude of brain waves increased significantly; Spike frequency of electrical activity in the brain [3]: significantly reduced, as compared to caffeine-treated animals.; Levels of protective enzymes (SOD, CAT, GSHPx) (MDA, SOD, CAT, GSHPx; caffeine-induced wake mouse, result in words, listed as Theanine): decreased, but the changes were not as great as those shown by caffeine treatment.; Animals that failed to sleep during the 10-minute period following pentobarbital administration ([4]; 20 mg/kg per os): About 62%; Duration of sleep [4]: significantly increased; Sleep latency period [4]: significantly reduced; Duration of sleep ([4]; listed as L-theanine): significantly increased; Sleep latency period ([4]; listed as L-theanine): significantly decreased; Time to cross the blood-brain barrier after oral administration [5]: ≤ 30 min; REM time during the sleep cycle (sleep cycle; [11]): increases; Sleep latency (sleep cycle; [11]): significantly decrease; Sleep time (sleep cycle; [11]): increase; NREM time, chronic administration (sleep cycle; chronic administration): significant increase; NREM time, single doses (sleep cycle; single doses): little effect; Intravenous dose that could inhibit the stimulatory action of caffeine [6]: higher than 0.78 mg/kg; Brain cell survival (Bax, Bcl-2, Caspase-3, eNOS, and iNOS, indicators of cell damage) [7]: + Theanine: Administration of theanine caused trends toward normalization of these |
| O=C([O-])CC(O)C(=O)[O-].[Mg+2] (stereo not shown) [magnesium malate] | – | – | – | – | – | – | – | more poorly absorbed than certain magnesium complexes with amino acids | – |
| [Mg+2] [magnesium] | – | – | – | – | – | – | – | – | Concentration of serum renin vs placebo ([9]; P<0.001): statistically significant increases; Sleep time vs placebo ([9]; P=0.002): statistically significant increases; Concentration of melatonin vs placebo ([9]; P=0.007): statistically significant increases; Sleep efficiency vs placebo ([9]; P=0.03): statistically significant increases; Early morning wakening time [9]: shortened; Insomnia Severity Index scores ([9]; subjective measure): improved |
| magnesium acetyl taurate | – | – | – | – | – | – | – | significantly better absorption and bioavailability than magnesium glycinate | – |
| magnesium citrate | – | – | – | – | – | – | – | more poorly absorbed than certain magnesium complexes with amino acids | – |
